Measurements from patent EP3875590A1, “METHOD FOR PRODUCING ORGANIC COMPOUND AND CORYNEFORM BACTERIUM” (Green Earth Institute Co., Ltd., priority 2018, dated 2020).

Legend:
[1] = system: leucine dehydrogenase; assay: oxidative deamination reaction activity against L-homoserine, crushed-cell solution expressing leucine dehydrogenase; format: biochemical, Lysinibacillus sphaericus; settings: crushed cells of GES1007 (E. coli BL21 (DE3), pGE1148); 100 mM glycine-KCl-KOH (pH 10.0), 2.5 mM NAD^+, 50 mM L-homoserine; NADH absorption at 340 nm
Procedure: Transformation was performed using pGE1148 and using ECOSTM Competent E. coli BL21 (DE3) (manufactured by NIPPON GENE CO., LTD.) according to its instructions, and the obtained strain was designated as GES1007. GES1007 was inoculated into an LB agar medium containing 100 µg/mL of ampicillin under aseptic conditions, and culture was performed at 37°C. Bacterial cells grown on the agar medium were inoculated into 10 mL of an LB medium containing 100 µg/mL of ampicillin, and shaking culture was performed at 37°C to prepare a seed culture solution. This seed culture solution was inoculated into 100 mL of an LB medium containing 100 µg/mL of ampicillin and prepared in a 500 mL flask so that a turbidity was 0.1. Shaking was performed at 37°C, and culture was performed until a turbidity was 0.7. […] When a protein concentration in this solution in which the cells were crushed was measured, it was 12 mg/mL.
Using this solution in which the bacterial cells were crushed, an oxidative deamination reaction activity against L-homoserine was measured. As the reaction conditions, an appropriately diluted solution in which the bacterial cells were crushed was mixed with 100 mM glycine-KCl-KOH (pH 10.0), 2.5 mM NAD^+, and 50 mM L-homoserine, and a continuous increase in absorption by NADH at 340 nm was measured using a Varioskan LUX (manufactured by Thermo Fisher Scientific Inc.). […]

[2] = target: T1, valine dehydrogenase (Streptomyces fradiae, UniProt P40176); assay: oxidative deamination reaction activity against L-homoserine, crushed-cell solution expressing valine dehydrogenase; format: biochemical; settings: crushed cells of GES1057 (E. coli BL21 (DE3), pGE1175); same conditions as 4-6-(1): pH 10.0, 2.5 mM NAD^+, 50 mM L-homoserine
T1 construct: His-tag (pET-15b vector-encoded, with thrombin site); made in house; host or cells: E. coli BL21 (DE3), strain GES1057, plasmid pGE1175 (pET-15b)
Procedure: (§1) Using this solution in which the bacterial cells were crushed, an oxidative deamination reaction activity against L-homoserine was measured. As the reaction conditions, an appropriately diluted solution in which the bacterial cells were crushed was mixed with 100 mM glycine-KCl-KOH (pH 10.0), 2.5 mM NAD^+, and 50 mM L-homoserine, and a continuous increase in absorption by NADH at 340 nm was measured using a Varioskan LUX (manufactured by Thermo Fisher Scientific Inc.). As a result, a specific activity of this solution in which the bacterial cells were crushed against L-homoserine was 0.21 U/mg of protein.
(§2) Transformation was performed using pGE1175 and using ECOSTM Competent E. coli BL21 (DE3) (manufactured by NIPPON GENE CO., LTD.) according to its instructions, and the obtained strain was designated as GES 1057. When a protein concentration in a solution, in which the cells were crushed and which was obtained by subjecting GES1057 to the same operation as that of GES 1007, was measured, it was 4.2 mg/mL.
(§3) As a result of measuring an oxidative deamination reaction activity against L-homoserine in the same manner as in 4-6-(1) using this solution in which the bacterial cells were crushed, a specific activity of this solution in which the bacterial cells were crushed against L-homoserine was 0.21 U/mg of protein.

[3] = target: T2, phenylalanine dehydrogenase (Pseudobacillus badius, UniProt Q59224); assay: oxidative deamination reaction activity against L-homoserine, crushed-cell solution expressing phenylalanine dehydrogenase; format: biochemical, Bacillus badius; settings: crushed cells of GES1136 (E. coli BL21 (DE3), pGE1237); same conditions as 4-6-(1): pH 10.0, 2.5 mM NAD^+, 50 mM L-homoserine
T2 construct: His-tag (pET-15b vector-encoded, with thrombin site); made in house; host or cells: E. coli BL21 (DE3), strain GES1136, plasmid pGE1237 (pET-15b)
Procedure: as §1
as §2, with “pGE1237” for “pGE1175”, “1136.” for “1057.”, “subj ecting GES1136” for “subjecting GES1057”, “11” for “4.2”
as §3, with “0.045” for “0.21”

[4] = system: leucine dehydrogenase; assay: enzyme kinetics (Michaelis-Menten) of the reductive amination reaction of HOB with purified leucine dehydrogenase; format: biochemical, Lysinibacillus sphaericus; settings: 100 mM HEPES/KOH (pH 7.5), 200 mM ammonium chloride, 0.2 mM NADH, 3.7 µg/mL leucine dehydrogenase
Procedure: The solution in which the bacterial cells were crushed and which was obtained in 4-6-(1) was subjected to a filtration treatment using a syringe filter with a pore size of 0.2 µm (manufactured by Sartorius AG). Fractionation was performed using an AKTA purifier system (manufactured by GE Healthcare) to which a HisTrap™ FF 1 mL column was connected, and using 50 mM sodium phosphate buffer (pH 8.0), 500 mM sodium chloride, and 10% glycerol as adsorption buffers, and 50 mM sodium phosphate buffer (pH 8.0), 500 mM sodium chloride, 10% glycerol, and 500 mM imidazole as elution buffers. Fractions containing leucine dehydrogenase identified by SDS-PAGE were recovered and concentrated using ultrafiltration. […]
Using the purified leucine dehydrogenase thus obtained, analysis of enzyme kinetics based on the Michaelis-Menten formula using HOB as a substrate was performed. As reaction conditions, 100 mM HEPES/KOH (pH 7.5), 200 mM ammonium chloride, 0.2 mM NADH, and 3.7 µg/mL leucine dehydrogenase were used, and a reaction rate at which a concentration of HOB was 3.13, 6.25, 12.5, 25.0, 50.0, and 100 mM was measured. A reaction rate was calculated by measuring a continuous decrease in absorption by NADH at 340 nm using a Varioskan LUX (manufactured by Thermo Fisher Scientific Inc.). […]

T1 sequence (P40176 whole entry): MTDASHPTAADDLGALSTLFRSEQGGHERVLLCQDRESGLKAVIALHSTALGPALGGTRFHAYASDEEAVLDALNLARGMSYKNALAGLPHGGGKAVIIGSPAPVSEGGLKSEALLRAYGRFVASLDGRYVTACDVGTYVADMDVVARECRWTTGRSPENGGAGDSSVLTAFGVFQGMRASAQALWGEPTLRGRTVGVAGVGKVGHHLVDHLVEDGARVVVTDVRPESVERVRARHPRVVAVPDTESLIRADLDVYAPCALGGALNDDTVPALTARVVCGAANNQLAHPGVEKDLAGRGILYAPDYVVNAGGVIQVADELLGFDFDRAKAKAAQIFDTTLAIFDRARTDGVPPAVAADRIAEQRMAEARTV
T2 sequence (Q59224 whole entry): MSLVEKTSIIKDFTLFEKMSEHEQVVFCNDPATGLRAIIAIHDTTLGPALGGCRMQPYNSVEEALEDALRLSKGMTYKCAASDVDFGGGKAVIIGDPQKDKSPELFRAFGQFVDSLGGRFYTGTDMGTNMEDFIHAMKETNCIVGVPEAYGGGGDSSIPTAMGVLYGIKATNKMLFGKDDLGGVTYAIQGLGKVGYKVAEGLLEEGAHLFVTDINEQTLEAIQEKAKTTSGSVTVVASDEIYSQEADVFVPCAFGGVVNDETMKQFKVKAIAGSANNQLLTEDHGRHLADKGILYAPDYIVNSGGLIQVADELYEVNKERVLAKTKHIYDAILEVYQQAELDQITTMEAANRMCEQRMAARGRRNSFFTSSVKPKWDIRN

Compound | specific activity of this solution in which the bacterial cells were crushed against L-homoserine [1] | specific activity of this solution in which the bacterial cells were crushed against L-homoserine [2] | specific activity of this solution in which the bacterial cells were crushed against L-homoserine [3] | Km ([4]; HOB 3.13-100 mM, read-out: Michaelis constant KM for HOB) [mM] | catalyst rotation speed kcat ([4]; HOB as a substrate) [s⁻¹]
N[C@@H](CCO)C(=O)O [L-homoserine] | 0.21 U/mg of protein | 0.21 U/mg of protein | 0.045 U/mg of protein | – | –
O=C(O)C(=O)CCO [HOB, 4-hydroxy-2-oxobutyric acid] | – | – | – | 7.7 | 2.7
